Where a name gives a salt, the structure may show the parent alone.
Assays:
NCI-H460 = experiment: Viability assay with NCI-H460 (CellTiter-Glo cytotoxicity assay, 72 h); type: cell-based; conditions: NCI-H460 cell line, 72 h after compounds addition
Experimental: (§1) NCI-H460 (Epithelial lung tissue; carcinoma; large cell lung cancer) were cultured in RPMI Medium 1640 (Invitrogen-22400105) supplemented with 10% fetal bovine serum (FBS; Invitrogen-10099141). All the cell lines were maintained in a humidified incubator at 37° C. with 5% CO2. Cell culture media and supplements were purchased from Invitrogen, and tissue culture flasks were purchased from Corning, 96-well plates were purchased from Greiner. CellTiter-Glo Luminescent Cell Viability Assay kits were purchased from Promega (Promega-G7573), cells counter Vi-Cell was purchased from Beckman, D300e digital dispenser was purchased from Tecan, detection instrument Envision was purchased from PerkinElmer.
(§2) Paclitaxel was purchased from SELLECK, test compounds, such as any one of the compounds disclosed herein, attained solubility in DMSO and when diluted into culture media. DMSO, solutions containing the test compounds, and culture media were warmed to 37° C. or room temperature for the solution preparation and dilutions.
(§3) NCI-H460 Cell line were seeded in 96-well plates (1200/well) and allowed to adhere to overnight (100 uL/well), for drug treatments with 2 fold dilution, 9 dose points, triplicates or vehicle control, compound stock solutions were prepared in DMSO and use D300e digital dispenser to add compounds to the wells to give the indicated final drug concentrations. Final DMSO concentration was 0.5%. Cellular ATP concentrations were assessed by using the CellTiter-Glo Cell Viability Assay as per the manufacturer's instructions 72 h after compounds addition. Additional cells lines were assayed with any one of the compounds disclosed herein according to the procedures described for the viability assay with NCI-H460.

MIA PaCa-2 = experiment: Viability assay with MIA PaCa-2; type: cell-based; conditions: MIA PaCa-2, viability assay per Example 57
Experimental: as §1, §2, §3
A viability assay with MIA PaCa-2 (Epithelial pancreas tissue; carcinoma) was performed with compounds listed in Table 15, according to the procedures described in Example 57.

EC50 (MIA PaCa-2)	SMILES	EC50 (NCI-H460)
≤ 5 µM	NC1(C(=O)NCCCn2cc(-c3ccc(OC(F)(F)F)cc3)c3cc(CN4CCN(Cc5ccccc5Cl)CC4)ccc32)CCNCC1 [C62; HCl]	≤ 5 µM
≤ 5 µM	NC1(C(=O)NCCCn2cc(-c3ccc(OC(F)(F)F)cc3)c3cc(CN4CCN(Cc5ccccc5)CC4)ccc32)CCNCC1 [C72; HCl]	≤ 5 µM
≤ 5 µM	COc1ccc(Cl)c(CN2CCN(Cc3ccc4c(c3)c(-c3ccc(OC(F)(F)F)cc3CN)cn4CCCN)CC2)c1 [C307; HCl]	≤ 5 µM
≤ 5 µM	COc1ccc(CN2CCN(Cc3ccc4c(c3)c(-c3ccc(OC(F)(F)F)cc3CN)cn4CCCN)CC2)c(Cl)c1 [C305; HCl]	≤ 5 µM
≤ 5 µM	NCCCn1cc(-c2ccccc2CCN)c2cc(CN3CCN(Cc4ccccc4Cl)CC3)ccc21 [C131, HCl]	≤ 5 µM
> 30 µM	CN1CCN(Cc2ccc3c(c2)c(-c2ccc(OC(F)(F)F)cc2)cn3CCCNC(=O)C2(N)CCNCC2)CC1 [C57; HCl]	> 30 µM
≤ 5 µM	NCCCn1cc(-c2ccc(OC(F)(F)F)cc2CN)c2cc(CN3CCN(Cc4cccc5c4OCO5)CC3)ccc21 [C304; HCl]	≤ 5 µM
≤ 5 µM	NC1(C(=O)NCCCn2cc(-c3ccc(OC(F)(F)F)cc3)c3cc(CN4CC5CN(Cc6c(Cl)cccc6Cl)CC5C4)ccc32)CCNCC1 (stereo not shown) [C70; HCl]	≤ 5 µM
≤ 5 µM	NC1(C(=O)NCCCn2cc(-c3ccc(OC(F)(F)F)cc3)c3cc(CN4CCN(Cc5c(Cl)cccc5Cl)CC4)ccc32)CCCCC1 [C82; HCl]	≤ 5 µM
≤ 5 µM	NC1(C(=O)NCCCc2cn(-c3ccc(OC(F)(F)F)cc3)c3cc(C(=O)N4CCN(Cc5c(Cl)cccc5Cl)CC4)ccc23)CCNCC1 [C80; HCl]	≤ 5 µM
≤ 5 µM	NCCCn1cc(-c2ccc(OC(F)(F)F)cc2CN)c2cc(CN3CCN(Cc4ccc5c(c4)OCO5)CC3)ccc21 [C302; HCl]	≤ 5 µM
≤ 5 µM	NCCCn1cc(-c2ccccc2CN)c2cc(CN3CCN(Cc4c(Cl)cccc4Cl)CC3)ccc21 [C161; HCl]	≤ 5 µM
≤ 5 µM	NC1(C(=O)NCCCn2cc(-c3ccc(OC(F)(F)F)cc3)c3cc(CN4CCN(Cc5ccccc5C(F)(F)F)CC4)ccc32)CCNCC1 [C63; HCl]	≤ 5 µM
≤ 5 µM	NC1(C(=O)NCCCn2cc(-c3ccc(OC(F)(F)F)cc3)c3cc(CN4CC5CCC4CN5Cc4c(Cl)cccc4Cl)ccc32)CCNCC1 (stereo not shown) [C69; HCl]	≤ 5 µM
≤ 5 µM	NCCCn1cc(-c2ccc(OC(F)(F)F)cc2)c2cc(CN3CCN(Cc4c(Cl)cccc4Cl)CC3)cnc21 [C177; HCl]	≤ 5 µM
≤ 5 µM	NC1(C(=O)NCCCn2cc(-c3ccc(OC(F)(F)F)cc3)c3cc(CN4CC5CC4CN5Cc4c(Cl)cccc4Cl)ccc32)CCNCC1 (stereo not shown) [C77; HCl]	≤ 5 µM
≤ 5 µM	COc1cccc(CN2CCN(Cc3ccc4c(c3)c(-c3ccc(OC(F)(F)F)cc3CN)cn4CCCN)CC2)c1Cl [C306; HCl]	≤ 5 µM
≤ 5 µM	COc1cc(CN2CCC3(CC2)CCN(Cc2ccc4c(c2)c(-c2ccc(OC(F)(F)F)cc2)cn4CCCN)C3)cc(OC)c1 [C308; HCl]	≤ 5 µM
≤ 5 µM	O=C(NCCCc1cn(-c2ccc(OC(F)(F)F)cc2)c2cc(CN3CCN(Cc4c(Cl)cccc4Cl)CC3)ccc12)C1CNCCN1 (stereo not shown) [C74; HCl]	≤ 5 µM
≤ 5 µM	NC1(C(=O)NCCCn2cc(-c3ccc(OC(F)(F)F)cc3)c3cc(CN4CCN(Cc5c(Cl)cccc5Cl)CC4)cnc32)CCNCC1 [C174; HCl]	≤ 5 µM
≤ 5 µM	NC1(C(=O)NCCCn2cc(-c3ccc(OC(F)(F)F)cc3)c3cc(CN4CCC5(CCN(Cc6c(Cl)cccc6Cl)CC5)C4)ccc32)CCNCC1 [C61; HCl]	≤ 5 µM
≤ 5 µM	NC1(C(=O)NCCCn2cc(-c3ccc(OC(F)(F)F)cc3)c3cc(CN4CCCN(Cc5c(Cl)cccc5Cl)CC4)ccc32)CCNCC1 [C78; HCl]	≤ 5 µM
≤ 5 µM	NC1(C(=O)NCCCn2cc(-c3ccc(OC(F)(F)F)cc3)c3cc(CN4CCC5(CC4)CN(Cc4c(Cl)cccc4Cl)C5)ccc32)CCNCC1 [C76; HCl]	5 to 10 µM
≤ 5 µM	O=C(NCCCn1cc(-c2ccc(OC(F)(F)F)cc2)c2cc(CN3CCN(Cc4c(Cl)cccc4Cl)CC3)ccc21)C1(NCc2cccnc2-c2cccc(Cl)c2)CCNCC1 [C114; HCl]	≤ 5 µM
≤ 5 µM	O=C(NCCCn1cc(-c2ccc(OC(F)(F)F)cc2)c2cc(CN3CCN(Cc4c(Cl)cccc4Cl)CC3)cnc21)C1CNCCN1 (stereo not shown) [C176; HCl]	≤ 5 µM

Continued, compound first:

SMILES	EC50 (MIA PaCa-2)	EC50 (NCI-H460)
NC1(C(=O)NCCCn2cc(-c3ccc(OC(F)(F)F)cc3)c3cc(CN4CCN(Cc5ccccc5F)CC4)ccc32)CCNCC1 [C60; Formic acid]	≤ 5 µM	≤ 5 µM
NC1(C(=O)NCCCn2cc(-c3ccc(OC(F)(F)F)cc3)c3cc(CN4CCCC5(CCN(Cc6c(Cl)cccc6Cl)CC5)C4)ccc32)CCNCC1 [C68; Formic acid]	≤ 5 µM	≤ 5 µM
NC1(C(=O)NCCCn2cc(-c3ccc(OC(F)(F)F)cc3)c3cc(CNC4C5CN(Cc6c(Cl)cccc6Cl)CC54)ccc32)CCNCC1 (stereo not shown) [C79; Formic acid]	≤ 5 µM	≤ 5 µM
NC1(C(=O)NCCCn2cc(-c3ccc(OC(F)(F)F)cc3)c3cc(CN4CCN(Cc5ccccc5OC(F)(F)F)CC4)ccc32)CCNCC1 [C58; Formic acid]	≤ 5 µM	≤ 5 µM
NC1(C(=O)NCCCn2cc(-c3ccc(OC(F)(F)F)cc3)c3cc(CN4CC5CCC(C4)N5Cc4c(Cl)cccc4Cl)ccc32)CCNCC1 [C86; Formic acid]	≤ 5 µM	≤ 5 µM
COc1ccc(CN2CCNC(C(=O)NCCCn3cc(-c4ccc(OC(F)(F)F)cc4)c4cc(CN5CCN(Cc6c(Cl)cccc6Cl)CC5)ccc43)C2)cc1OCc1ccc(Cl)c(Cl)c1 (stereo not shown) [C89; Formic acid]	5 to 10 µM	5 to 10 µM
N#Cc1ccccc1CN1CCN(Cc2ccc3c(c2)c(-c2ccc(OC(F)(F)F)cc2)cn3CCCNC(=O)C2(N)CCNCC2)CC1 [C66; HCl]	≤ 5 µM	≤ 5 µM
NC1(C(=O)NCCn2cc(-c3ccc(OC(F)(F)F)cc3)c3cc(CN4CCN(Cc5c(Cl)cccc5Cl)CC4)ccc32)CCNCC1 [C64; HCl]	≤ 5 µM	≤ 5 µM
NC1(C(=O)NCCCc2cn(-c3ccc(OC(F)(F)F)cc3)c3cc(CN4CCN(Cc5c(Cl)cccc5Cl)CC4)ccc23)CCNCC1 [C75; HCl]	≤ 5 µM	≤ 5 µM
CC(C)(C)OC(=O)N1CCC(N)(C(=O)NCCCn2cc(-c3ccc(OC(F)(F)F)cc3)c3cc(CN4CCN(Cc5c(Cl)cccc5Cl)CC4)cnc32)CC1 [C175; Formic Acid]	5 to 10 µM	≤ 5 µM
O=C(NCCCn1cc(-c2ccc(OC(F)(F)F)cc2)c2cc(CN3CCN(Cc4c(Cl)cccc4Cl)CC3)ccc21)C1CNCCN1 (stereo not shown) [C90; HCl]	≤ 5 µM	≤ 5 µM
CC(C)(C)OC(=O)N1CCC(N)(C(=O)NCCCc2cn(-c3ccc(OC(F)(F)F)cc3)c3cc(CN4CCN(Cc5c(Cl)cccc5Cl)CC4)ccc23)CC1 [C73; Formic acid]	≤ 5 µM	≤ 5 µM
Cc1ccccc1CN1CCN(Cc2ccc3c(c2)c(-c2ccc(OC(F)(F)F)cc2)cn3CCCNC(=O)C2(N)CCNCC2)CC1 [C71; HCl]	≤ 5 µM	≤ 5 µM
COc1ccccc1CN1CCN(Cc2ccc3c(c2)c(-c2ccc(OC(F)(F)F)cc2)cn3CCCNC(=O)C2(N)CCNCC2)CC1 [C59; Formic acid]	≤ 5 µM	≤ 5 µM
CC(C)(C)OC(=O)NCCCc1cn(-c2ccc(OC(F)(F)F)cc2)c2cc(CN3CCN(Cc4c(Cl)cccc4Cl)CC3)ccc12 [C88; Formic acid]	> 30 µM	> 30 µM
NC1(C(=O)NCCCn2cc(-c3ccc(OC(F)(F)F)cc3)c3cc(CN4CC5C(C4)C5NCc4c(Cl)cccc4Cl)ccc32)CCNCC1 (stereo not shown) [C85; HCl]	≤ 5 µM	≤ 5 µM
NC1(C(=O)NCCCn2cc(-c3ccc(OC(F)(F)F)cc3)c3cc(CN4CC5(CCN(Cc6c(Cl)cccc6Cl)CC5)C4)ccc32)CCNCC1 [C65; HCl]	≤ 5 µM	≤ 5 µM
NCCCc1cn(-c2ccc(OC(F)(F)F)cc2)c2cc(CN3CCN(Cc4c(Cl)cccc4Cl)CC3)ccc12 [C87; Formic acid]	≤ 5 µM	≤ 5 µM
NC1(C(=O)NCCCn2cc(-c3ccc(OC(F)(F)F)cc3)c3cc(CN4CCC5(CC4)CCN(Cc4c(Cl)cccc4Cl)CC5)ccc32)CCNCC1 [C67; Formic acid]	≤ 5 µM	≤ 5 µM
NCC(N)C(=O)NCCCn1cc(-c2ccc(OC(F)(F)F)cc2)c2cc(CN3CCN(Cc4c(Cl)cccc4Cl)CC3)ccc21 (stereo not shown) [C81; HCl]	≤ 5 µM	≤ 5 µM
COc1cccc(CN2CCC3(CC2)CCN(Cc2ccc4c(c2)c(-c2ccc(OC(F)(F)F)cc2)cn4CCCN)C3)c1 [C309; HCl]	≤ 5 µM	≤ 5 µM
NCCCn1cc(-c2ccc(OC(F)(F)F)cc2CN)c2cc(CN3CCN(Cc4ccc5c(c4)OCCO5)CC3)ccc21 [C303; HCl]	≤ 5 µM	≤ 5 µM
